Converted amounts (≈) assume the structure as drawn. Where two headings read alike, the source gives them in different places.
Experiments:
[1] = test system: K. pneumoniae 225; test: MicroScan Walkaway microdilution susceptibility test; format: cell-based, Klebsiella pneumoniae; settings: for MicroScan susceptibility result: K. pneumoniae 225; for MIC: Klebsiella pneumoniae, 225, read-out: MicroScan MIC
[2] = test system: E. coli HB101 transformant (17 kb plasmid); settings: disk diffusion, Tr (17 kb) = transformant E. coli HB101
[3] = test system: K. pneumoniae 225; test: NCCLS microdilution susceptibility test; format: cell-based, Klebsiella pneumoniae; settings: Klebsiella pneumoniae, 225
[4] = test system: K. pneumoniae; test: Agar dilution MIC, South African isolates; format: cell-based, Klebsiella pneumoniae; settings: tzp with tazobactam 4 μg/ml
Text: (§1) The strains were provided in response to a request for all strains of Enterobacteriaceae, lacking inducible beta-lactamases, that were intermediate or resistant to cefotaxime or ceftazidime. […]

[5] = test system: E. coli; test: Agar dilution MIC, South African isolates; format: cell-based, Escherichia coli; settings: tzp with tazobactam 4 μg/ml
Text: as §1

[6] = test system: P. mirabilis; test: Agar dilution MIC, South African isolates; format: cell-based, Proteus mirabilis; settings: 4 strains, tzp with tazobactam 4 μg/ml
Text: During a period of three months in 1993, […] strains of Klebsiella pneumoniae (13 blood, 5 burn, 7 wound, 11 tracheal isolates), 4 strains of Proteus mirabilis (all wound isolates) and 4 strains of Escherichia coli (1 blood, 1 burn, 2 wound isolates) were collected from patients at the following medical centers in South Africa: Tygerberg Hospital near Cape Town, King Edward VIII Hospital in Durban, Chris Hani Baragwanath Hospital in Soweto and Pretoria Academic Hospital in Pretoria. The strains were provided in response to a request for all strains of Enterobacteriaceae, lacking inducible beta-lactamases, that were intermediate or resistant to cefotaxime or ceftazidime. […] Therefore accurate prevalence data were not obtained.
Antibiotic susceptibility was determined by standard disk diffusion (NCCLS Standard M2-T4, 1994) and agar dilution (NCCLS Standard M7-T2, 1994) procedures. Standard powders of antimicrobial agents were kindly provided by the following companies: piperacillin and tazobactam (Lederle Laboratories, Wayne, N.J.); cefoxitin and imipenem, (Merck, Rathway, N.J.); cefotaxime, (Hoechst-Roussel Pharmaceuticals Inc., Somerville, N.J.); ceftazidime, (Glaxo Group Research Ltd., Greenford, England); aztreonam and cefepime, (Bristol-Myers Squibb, Princeton, N.J.). Disks for agar diffusion were obtained from Becton Dickinson Microbiology Systems (Cockeysville, Md.). For quality control purposes, the following quality control strains were run simultaneously with the test organisms E. coli ATCC 25922, Pseudomonas aeruginosa ATCC 27853, E. coli ATCC 35218, and Staphylococcus aureus ATCC 29213. Throughout this study, results were interpreted using NCCLS criteria for disk diffusion (NCCLS Standard M2-T4, 1994) and broth dilution (NCCLS Standard M7-T2, 1994).

[7] = test system: K. pneumoniae 225; test: NCCLS disk diffusion assay; format: cell-based, Klebsiella pneumoniae; settings: disk diffusion, Kleb 225
[8] = test system: E. coli C600 transconjugant; settings: disk diffusion, Tc = transconjugate E. coli C600
[9] = test system: E. aerogenes; format: cell-based, Enterobacter aerogenes
Method: Antibiotic susceptibilities were determined by standard disk-diffusion (NCCLS Standard M2-A6) and agar-dilution (NCCLS Standard M7-A4) procedures. Disks were obtained from Becton Dickinson Microbiology Systems (Cockeysville, Md.). […] Throughout this study, results were interpreted using NCCLS criteria for disk diffusion (NCCLS M2-A6) and broth dilution (NCCLS M7-A4).

[10] = resistance phenotype Kpn2, 28 strains
[11] = resistance phenotype Ec2, 1 strain
[12] = resistance phenotype Kpn1, 8 strains
[13] = resistance phenotype Kpn3 (K. pneumoniae Pit 68), 1 strain
[14] = resistance phenotype Ec1, 3 strains

## NCC[C@H](O)C(=O)N[C@@H]1C[C@H](N)[C@@H](O[C@H]2O[C@H](CN)[C@@H](O)[C@H](O)[C@H]2O)[C@H](O)[C@H]1O[C@H]1O[C@H](CO)[C@@H](O)[C@H](N)[C@H]1O [amikacin]
[1]
  MicroScan susceptibility result: Resistant
  MIC: > 32 µg/mL
[2]
  Zone Size: 12 mm

## CO/N=C(\C(=O)N[C@@H]1C(=O)N2C(C(=O)[O-])=C(C[N+]3(C)CCCC3)CS[C@H]12)c1csc(N)n1 [cefepime]
[3]
  MIC: 1 µg/mL (≈ 2.08 µM)
[4]; [10]
  MIC range: 0.5 to 4 µg/mL
[5]; [11]
  MIC range: 2 µg/mL
[6]
  MIC range: 2 µg/mL

## C=CC1=C(C(=O)O)N2C(=O)[C@@H](NC(=O)/C(=N\OCC(=O)O)c3csc(N)n3)[C@H]2SC1 [cefixime]
[3]
  MIC: > 64 µg/mL

## CO[C@@]1(NC(=O)C2SC(=C(C(N)=O)C(=O)O)S2)C(=O)N2C(C(=O)O)=C(CSc3nnnn3C)CS[C@@H]21 (stereo partly shown) [cefotetan]
[1]
  MIC: 16 µg/mL (≈ 27.8 µM)
[7]
  Zone Size: 12 mm
[2]
  Zone Size: 30 mm
[8]
  Zone Size: 11 mm

## COCC1=C(C(=O)O)N2C(=O)[C@@H](NC(=O)/C(=N\OC)c3csc(N)n3)[C@H]2SC1 [cefpodoxime]
[3]
  MIC: 64 µg/mL (≈ 150 µM)

## CC(=O)OCC1=C(C(=O)O)N2C(=O)[C@@H](NC(=O)Cc3cccs3)[C@H]2SC1 [cephalothin]
[3]
  MIC: > 64 µg/mL

## O=C(N[C@H](CO)[C@H](O)c1ccc([N+](=O)[O-])cc1)C(Cl)Cl [chloramphenicol]
[1]
  MicroScan susceptibility result: Resistant
  MIC: > 16 µg/mL
[7]
  Zone Size: 8 mm
[2]
  Zone Size: 22 mm
[8]
  Zone Size: 12 mm

## C[C@@H](O)[C@H]1C(=O)N2C(C(=O)O)=C(SCCN=CN)C[C@H]12 [imipenem]
[3]
  MIC: 1 µg/mL (≈ 3.34 µM)
[7]
  Zone Size: 22 mm
[4]; [12]
  MIC range: 0.12 µg/mL
[4]; [10]
  MIC range: 0.12 to 1 µg/mL
[4]; [13]
  MIC range: 0.12 µg/mL
[5]; [14]
  MIC range: 0.12 µg/mL
[5]; [11]
  MIC range: 0.12 µg/mL
[6]
  MIC range: 0.5 to 1 µg/mL
[9]; 1 E. aerogenes strain with Bush group 1 and group 2be (SHV-3) enzymes
  MIC range: 0.5 µg/mL (≈ 1.67 µM)
[9]; 1 E. aerogenes strain with Bush group 1 and group 2be (SHV-5) enzymes
  MIC range: 1 µg/mL (≈ 3.34 µM)
[9]; 29 E. aerogenes strains with Bush group 1 and group 2be (SHV-4) enzymes
  MIC range: 0.5 µg/mL (≈ 1.67 µM)
[2]
  Zone Size: 33 mm
[8]
  Zone Size: 23 mm

## C[C@H]1COc2c(N3CCN(C)CC3)c(F)cc3c(=O)c(C(=O)O)cn1c23 [levofloxacin]
[1]
  MIC: 2 µg/mL (≈ 5.53 µM)

## C[C@@H](O)[C@H]1C(=O)N2C(C(=O)O)=C(S[C@@H]3CN[C@H](C(=O)N(C)C)C3)[C@H](C)[C@H]12 [meropenem]
[3]
  MIC: 0.06 µg/mL (≈ 0.156 µM)

## O=C1CN(/N=C/c2ccc([N+](=O)[O-])o2)C(=O)N1 [nitrofurantoin]
[1]
  MIC: > 64 µg/mL

## CC1COc2c(N3CCN(C)CC3)c(F)cc3c(=O)c(C(=O)O)cn1c23 (stereo not shown) [ofloxacin]
[1]
  MIC: 2 µg/mL (≈ 5.53 µM)

## CCN1CCN(C(=O)N[C@@H](C(=O)N[C@@H]2C(=O)N3[C@@H]2SC(C)(C)[C@@H]3C(=O)O)c2ccccc2)C(=O)C1=O [piperacillin]
[3]
  MIC: > 64 µg/mL
[4]; [13]
  MIC range: 64 µg/mL
[5]; [14]
  MIC range: >128 µg/mL
[5]; [11]
  MIC range: >128 µg/mL
[6]
  MIC range: 128 µg/mL

## CC1(C)S[C@@H]2[C@H](NC(=O)[C@H](C(=O)O)c3ccsc3)C(=O)N2[C@H]1C(=O)O [ticarcillin]
[3]
  MIC: > 64 µg/mL

## NC[C@H]1O[C@H](O[C@H]2[C@H](O)[C@@H](O[C@H]3O[C@H](CO)[C@@H](O)[C@H](N)[C@H]3O)[C@H](N)C[C@@H]2N)[C@H](N)C[C@@H]1O [tobramycin]
[1]
  MicroScan susceptibility result: Resistant
  MIC: > 8 µg/mL

## piperacillin/tazobactam
[7]
  Zone Size: 15 mm
[4]; [12]
  MIC range: 2 to 4 µg/mL
[4]; [13]
  MIC range: 16 µg/mL
[5]; [14]
  MIC range: 1 µg/mL
[5]; [11]
  MIC range: 32 µg/mL
[6]
  MIC range: 0.25 to 0.5 µg/mL
[2]
  Zone Size: 30 mm
[8]
  Zone Size: 14 mm
